Results reported in PMC10799085, “A miniaturized mode-of-action profiling platform enables high throughput characterization of the molecular and cellular dynamics of EZH2 inhibition” (Scientific Reports, 2024).
Where two headings read alike, the source gives them in different places.

Assays:
PRC2/EZH2Y641N [1] = molecular target: T1, PRC2/EZH2Y641N (Homo sapiens, UniProt Q15910, Y641N); assay: Kinetic probe competition assay (kPCA), TR-FRET; type: binding
T1 construct: Synthetic cDNA encoding N-terminal 6His-tagged full length EZH2^Y641N; 6His (N); made in house; host or cells: Sf9 insect cells (baculovirus co-infection)
Description: (§1) Biotinylated PRC2 complexes and the fluorescent probe used in TR-FRET assays were generated as described in the supplementary methods section.

in vitro = in vitro ADME; conditions: human, Caco-2, pH 7.2
PRC2/EZH2+/+ = molecular target: T2, PRC2/EZH2+/+ (Homo sapiens, UniProt Q15910); assay: Kinetic probe competition assay (kPCA), TR-FRET; type: binding
T2 construct: purchased Active Motif
Procedure: as §1
For measurements at 25, 30 and 37 °C, the temperature control functionality of the instrument was used.
TR-FRET kPCA traces were exported via Microsoft Excel to GraphPad Prism, where non-specific signals were subtracted and kinetic association competition traces were fitted to the Motulsky–Mahan model “kinetics of competitive binding” to obtain kon (k3), koff (k4) and KD parameters.

PRC2/EZH2Y641N [2] = molecular target: T1, PRC2/EZH2Y641N; assay: Equilibrium probe competition assay (ePCA), TR-FRET; type: binding
[3] = EZH2Y641N (- H3K27me3), sheet ePCA&kPCA RT

Structure (SMILES): Cc1cc(C)c(CN2CCc3c(Cl)cc(-c4c(C)noc4C)c(Cl)c3C2=O)c(=O)[nH]1 [Compound 14]
- Calculated RT (PRC2/EZH2Y641N [1]; EZH2Y641N (+ H3K27me3)): 0.16 h
- Kd (PRC2/EZH2Y641N [1]; EZH2Y641N (+ H3K27me3), kinetic, RT sheet): 0.68 nM
- Kinetic Efficiency (PRC2/EZH2Y641N [1]; EZH2Y641N (- H3K27me3)): 2.35E-02
- Calculated RT (PRC2/EZH2Y641N [1]; EZH2Y641N (- H3K27me3)): 0.19 h
- Kd (PRC2/EZH2Y641N [1]; [3]): 2.83 nM
- koff (PRC2/EZH2Y641N [1]; [3]): 0.00136 s⁻¹
- kon (PRC2/EZH2Y641N [1]; [3]): 496000 M⁻¹ s⁻¹
- Papp A→B at 2 h, 2 µM (in vitro; 2 µM, 2 h, 37 °C, apical to basolateral, read-out: PK Caco-2 Flux Papp A-B (mean)): 15.4 ×10⁻⁶ cm/s
- Papp B→A at 2 h, 2 µM (in vitro; 2 µM, 2 h, 37 °C, basolateral to apical, read-out: PK Caco-2 Flux Papp B-A (mean)): 17.4 ×10⁻⁶ cm/s
- efflux ratio at 2 h, 2 µM (in vitro; Papp B-A divided by Papp A-B, read-out: PK Caco-2 Flux Efflux Ratio (mean)): 1.13
- Kinetic Efficiency (PRC2/EZH2+/+; EZH2+/+ (+ H3K27me3)): 3.61E-02
- Calculated RT (PRC2/EZH2+/+; EZH2+/+ (+ H3K27me3)): 0.29 h
- Kd (PRC2/EZH2+/+; EZH2+/+ (+ H3K27me3), sheet ePCA&kPCA RT, read-out: Kinetic Kd): 0.303 nM
- koff (PRC2/EZH2+/+; EZH2+/+ (+ H3K27me3), sheet ePCA&kPCA RT, read-out: Kinetic koff): 0.000323 s⁻¹
- kon (PRC2/EZH2+/+; EZH2+/+ (+ H3K27me3), sheet ePCA&kPCA RT, read-out: Kinetic kon): 1.06e+06 M⁻¹ s⁻¹
- Kinetic Efficiency (PRC2/EZH2+/+; EZH2+/+ (- H3K27me3)): 2.67E-02
- RT (Calculated) (PRC2/EZH2+/+; EZH2+/+ (- H3K27me3), 5 °C): 2.28 h
- koff (PRC2/EZH2+/+; EZH2+/+ (- H3K27me3), 5 °C, read-out: koff (Kinetic)): 0.000251 s⁻¹
- koff (PRC2/EZH2+/+; EZH2+/+ (- H3K27me3), 5 °C, read-out: koff calc (Calculated)): 0.000122 s⁻¹
- kon (PRC2/EZH2+/+; EZH2+/+ (- H3K27me3), 5 °C, read-out: kon (Kinetic)): 111000 M⁻¹ s⁻¹
- RT (Calculated) (PRC2/EZH2+/+; EZH2+/+ (- H3K27me3), 15 °C): 0.613 h
- Kd (PRC2/EZH2+/+; EZH2+/+ (- H3K27me3), 15 °C, read-out: Kd (Kinetic)): 0.378 nM
- koff (PRC2/EZH2+/+; EZH2+/+ (- H3K27me3), 15 °C, read-out: koff (Kinetic)): 0.000211 s⁻¹
- kon (PRC2/EZH2+/+; EZH2+/+ (- H3K27me3), 15 °C, read-out: kon (Kinetic)): 559000 M⁻¹ s⁻¹
- RT (Calculated) (PRC2/EZH2+/+; EZH2+/+ (- H3K27me3), 30 °C): 0.244 h
- Kd (PRC2/EZH2+/+; EZH2+/+ (- H3K27me3), 30 °C, read-out: Kd (Kinetic)): 5.24 nM
- koff (PRC2/EZH2+/+; EZH2+/+ (- H3K27me3), 30 °C, read-out: koff (Kinetic)): 0.00307 s⁻¹
- koff (PRC2/EZH2+/+; EZH2+/+ (- H3K27me3), 30 °C, read-out: koff calc (Calculated)): 0.00114 s⁻¹
- kon (PRC2/EZH2+/+; EZH2+/+ (- H3K27me3), 30 °C, read-out: kon (Kinetic)): 582000 M⁻¹ s⁻¹
- RT (Calculated) (PRC2/EZH2+/+; EZH2+/+ (- H3K27me3), 37 °C): 0.14 h
- Kd (PRC2/EZH2+/+; EZH2+/+ (- H3K27me3), 37 °C, read-out: Kd (Kinetic)): 2.4 nM
- koff (PRC2/EZH2+/+; EZH2+/+ (- H3K27me3), 37 °C, read-out: koff (Kinetic)): 0.00199 s⁻¹
- koff (PRC2/EZH2+/+; EZH2+/+ (- H3K27me3), 37 °C, read-out: koff calc (Calculated)): 0.00194 s⁻¹
- kon (PRC2/EZH2+/+; EZH2+/+ (- H3K27me3), 37 °C, read-out: kon (Kinetic)): 845000 M⁻¹ s⁻¹
- Calculated RT (PRC2/EZH2+/+; EZH2+/+ (- H3K27me3)): 0.21 h
- Kd (PRC2/EZH2+/+; EZH2+/+ (- H3K27me3), sheet ePCA&kPCA RT, read-out: Kinetic Kd): 2.27 nM
- koff (PRC2/EZH2+/+; EZH2+/+ (- H3K27me3), sheet ePCA&kPCA RT, read-out: Kinetic koff): 0.00201 s⁻¹
- kon (PRC2/EZH2+/+; EZH2+/+ (- H3K27me3), sheet ePCA&kPCA RT, read-out: Kinetic kon): 883000 M⁻¹ s⁻¹
- Ligand Efficiency (PRC2/EZH2Y641N [2]; EZH2Y641N (+ H3K27me3)): 1.6
- Ki (PRC2/EZH2Y641N [2]; EZH2Y641N (+ H3K27me3), equilibrium, RT sheet): 1.35 nM
- Ligand Efficiency (PRC2/EZH2Y641N [2]; EZH2Y641N (- H3K27me3)): 1.5
- Ki (PRC2/EZH2Y641N [2]; [3]): 2.99 nM
